IC50 data for 24 molecules are collected here from US11932658B2 (BRISTOL-MYERS SQUIBB COMPANY, priority 2016, dated 2024).

For the first test, the target named is T1, PAR4 (Homo sapiens, UniProt Q96RI0).
T1 construct: expressed in transfected cells; host or cells: HEK293 PAR4 Clone 1.2A (BMS Arctic ID 383940)
T1 sequence (Q96RI0 18-385): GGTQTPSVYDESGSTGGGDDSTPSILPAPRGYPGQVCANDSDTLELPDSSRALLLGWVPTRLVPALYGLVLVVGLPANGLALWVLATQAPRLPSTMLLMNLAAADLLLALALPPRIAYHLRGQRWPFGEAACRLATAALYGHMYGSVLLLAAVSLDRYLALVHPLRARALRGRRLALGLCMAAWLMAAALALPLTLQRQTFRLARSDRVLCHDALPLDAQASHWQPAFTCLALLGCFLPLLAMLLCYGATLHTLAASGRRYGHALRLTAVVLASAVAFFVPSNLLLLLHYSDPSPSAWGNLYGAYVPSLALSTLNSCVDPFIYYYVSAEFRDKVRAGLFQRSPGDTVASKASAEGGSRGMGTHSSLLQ
As to the kind of experiment: PAR4 FLIPR assay (antagonism of agonist peptide-induced calcium mobilization).
Conditions: not given
Type of test: cell-based. The essentials: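 Antagonism was taken as block of calcium mobilization evoked by the agonist peptide H-Ala-Phe(4-F)-Pro-Gly-Trp-Leu-Val-Lys-Asn-[…]-NH2, added after 30 min room-temperature compound preincubation in dye-loaded PAR4-transfected HEK293 cells (endogenous PAR1). Fluorescence was read on FDSS, with compound addition alone used as the agonist counter-screen; values come from 11-point concentration-response curves.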
In general terms: A change in cytosolic calcium serves as a functional read-out for many receptors and channels.
For the molecule `COc1cnc2c(-c3nc4cc(F)c5c(c4s3)C[C@H](COC(=O)Nc3cnc(C)nc3)O5)cc(Cl)cc2c1` [Example 267, (R)-(2-(6-chloro-3-methoxyquinolin-8-yl)-5-fluoro-7,8-dihydrobenzofuro[5,4-d]thiazol-7-yl)methyl (2-methylpyrimidin-5-yl)carbamate], the IC50 (commonly the concentration at which inhibition is half-maximal) stood at 1.8 nM.

Take `COc1cnc2c(-c3nc4ccc5c(c4s3)OC[C@H](COC(=O)Nc3cnc(C)nc3)O5)cc(C)cc2c1` [Example 268, (R)-(2-(3-methoxy-6-methylquinolin-8-yl)-7,8-dihydro-[1,4]dioxino[2′,3′:3,4]benzo[1,2-d]thiazol-7-yl)methyl (2-methylpyrimidin-5-yl)carbamate]: the half-inhibitory concentration (IC50) worked out at 4.4 nM.

On to `COc1cnc2c(-c3nc4cc(F)c5c(c4s3)C[C@H](COC(=O)Nc3cnc(C)nc3)O5)cc(C)cc2c1` [Example 269, (R)-(5-fluoro-2-(3-methoxy-6-methylquinolin-8-yl)-7,8-dihydrobenzofuro[5,4-d]thiazol-7-yl)methyl (2-methylpyrimidin-5-yl)carbamate], for which the IC50 came out at 2.7 nM.

Regarding `CCOc1cnc2c(-c3nc4cc(F)c5c(c4s3)C[C@H](COC(=O)Nc3cnc(C)nc3)O5)cc(Cl)cc2c1` [Example 270, (R)-(2-(6-chloro-3-ethoxyquinolin-8-yl)-5-fluoro-7,8-dihydrobenzofuro[5,4-d]thiazol-7-y 1)methyl (2-methylpyrimidin-5-yl)carbamate], the IC50 was 2.2 nM.

On to `CCOc1cnc2c(-c3nc4ccc5c(c4s3)OC[C@H](COC(=O)Nc3cnc(C)nc3)O5)cc(Cl)cc2c1` [Example 271, (R)-(2-(6-chloro-3-ethoxyquinolin-8-yl)-7,8-dihydro-[1,4]dioxino[2′,3′:3,4]benzo[1,2-d]thiazol-7-yl)methyl (2-methylpyrimidin-5-yl)carbamate], for which the IC50 was 4.9 nM.

As for `Cc1ncc(NC(=O)OC[C@H]2COc3c(ccc4nc(-c5cc(Cl)cc6cc(OC(F)F)cnc56)sc34)O2)cn1` [Example 272, (R)-(2-(6-chloro-3-(difluoromethoxy)quinolin-8-yl)-7,8-dihydro-[1,4]dioxino[2′,3′:3,4]benzo[1,2-d]thiazol-7-yl)methyl (2-methylpyrimidin-5-yl)carbamate], the IC50 came to 3.3 nM.

In the case of `Cc1ncc(NC(=O)OC[C@H]2Cc3c(c(F)cc4nc(-c5cc(Cl)cc6cc(OC(F)F)cnc56)sc34)O2)cn1` [Example 273, (R)-(2-(6-chloro-3-(difluoromethoxy)quinolin-8-yl)-5-fluoro-7,8-dihydrobenzofuro[5,4-d]thiazol-7-yl)methyl (2-methylpyrimidin-5-yl)carbamate], the IC50 came out at 6.4 nM.

Take `COc1cnc2c(-c3nc4ccc5c(c4s3)OC[C@H](COC(=O)Nc3cnc(C)nc3)O5)cc(C(F)F)cc2c1` [Example 275, (R)-(2-(6-(difluoromethyl)-3-methoxyquinolin-8-yl)-7,8-dihydro-[1,4]dioxino [2′,3′:3,4]benzo[1,2-d]thiazol-7-yl)methyl (2-methylpyrimidin-5-yl)carbamate]: the IC50 turned out to be 12 nM.

Regarding `COc1cnc2c(-c3nc4ccc5c(c4s3)OC[C@H](COC(=O)Nc3cnc(C)nc3)O5)cc(CF)cc2c1` [Example 276, (R)-(2-(6-(fluoromethyl)-3-methoxyquinolin-8-yl)-7,8-dihydro-[1,4]dioxino[2′,3′:3,4]benzo[1,2-d]thiazol-7-yl)methyl (2-methylpyrimidin-5-yl)carbamate], the IC50 is 140 nM.

As to `COc1cnc2c(-c3nc4c(C(O)C5(C)CCCCC5)cc5c(c4s3)OCCO5)cc(C)cc2n1` (stereo not drawn) [Example 278, (2-(2-methoxy-7-methylquinoxalin-5-yl)-7,8-dihydro-[1,4]dioxino[2′,3′:3,4]benzo[1,2-d]thiazol-4-yl)(1-methylcyclohexyl)methanol], the half-maximal inhibitory concentration (IC50) is 19 nM.

Regarding `COc1cnc2c(-c3nc4c(C(O)C5(C(F)(F)F)CC5)cc5c(c4s3)OCCO5)cc(C)cc2n1` (stereo not drawn) [Example 279, (2-(2-methoxy-7-methylquinoxalin-5-yl)-7,8-dihydro-[1,4]dioxino[2′,3′:3,4]benzo[1,2-d]thiazol-4-yl)(1-(trifluoromethyl)cyclopropyl)methanol], the IC50 was 9.1 nM.

Take `COc1cnc2c(-c3nc4cc(F)c5c(c4s3)C[C@H](COC(=O)Nc3cnc(C)nc3)O5)cc(F)cc2c1` [Example 280, (R)-(5-fluoro-2-(6-fluoro-3-methoxyquinolin-8-yl)-7,8-dihydrobenzofuro[5,4-d]thiazol-7-yl)methyl (2-methylpyrimidin-5-yl)carbamate]: the IC50 stood at 2.4 nM.

Regarding `COc1cnc2c(-c3nc4ccc5c(c4s3)OC[C@H](COC(=O)Nc3cnc(C)nc3)O5)cc(F)cc2c1` [Example 281, (R)-(2-(6-fluoro-3-methoxyquinolin-8-yl)-7,8-dihydro-[1,4]dioxino[2′,3′:3,4]benzo[1,2-d]thiazol-7-yl)methyl (2-methylpyrimidin-5-yl)carbamate], the 50% inhibitory concentration (IC50) was 9 nM.

As to `COc1cnc2c(-c3nc4cc(F)c5c(c4s3)C[C@H](CO)O5)cc(Cl)cc2c1` [Example 282, (R)-(2-(6-chloro-3-methoxyquinolin-8-yl)-5-fluoro-7,8-dihydrobenzofuro[5,4-d]thiazol-7-yl)methanol], the 50% inhibitory concentration (IC50) was 36 nM.

Turning to `COc1cnc2c(-c3nc4cc(F)c5c(c4s3)C[C@H](COC(=O)Nc3cccnc3)O5)cc(Cl)cc2c1` [Example 283, (R)-(2-(6-chloro-3-methoxyquinolin-8-yl)-5-fluoro-7,8-dihydrobenzofuro[5,4-d]thiazol-7-yl)methyl pyridin-3-ylcarbamate], the IC50 is 2.2 nM.

Take `COc1cnc2c(-c3nc4cc(F)c5c(c4s3)C[C@H](COC(=O)Nc3cccc(C(N)=O)c3)O5)cc(Cl)cc2c1` [Example 284, (R)-(2-(6-chloro-3-methoxyquinolin-8-yl)-5-fluoro-7,8-dihydrobenzofuro[5,4-d]thiazol-7-yl)methyl (3-carbamoylphenyl)carbamate]: the half-maximal inhibitory concentration (IC50) amounted to 2.8 nM.

As to `COc1cnc2c(-c3nc4cc(F)c5c(c4s3)C[C@@](C)(CO)O5)cc(Cl)cc2c1` [Example 285, (S)-(2-(6-chloro-3-methoxyquinolin-8-yl)-5-fluoro-7-methyl-7,8-dihydrobenzofuro[5,4-d]thiazol-7-yl)methanol], the IC50 is 1.5 nM.

For `COc1cnc2c(-c3nc4cc(F)c5c(c4s3)C[C@](C)(COC(=O)Nc3cnc(OCCO)nc3)O5)cc(Cl)cc2c1` [Example 286, (R)-(2-(6-chloro-3-methoxyquinolin-8-yl)-5-fluoro-7-methyl-7,8-dihydrobenzofuro[5,4-d]thiazol-7-yl)methyl (2-(2-hydroxyethoxy)pyrimidin-5-yl)carbamate], the half-inhibitory concentration (IC50) came to 1 nM.

With `COc1cnc2c(-c3nc4ccc5c(c4s3)OC[C@H](COC(=O)Nc3cnc(OCCO)nc3)O5)cc(Cl)cc2c1` [Example 287, (R)-(2-(6-chloro-3-methoxyquinolin-8-yl)-7,8-dihydro-[1,4]dioxino[2′,3′:3,4]benzo[1,2-d]thiazol-7-yl)methyl (2-(2-hydroxyethoxy)pyrimidin-5-yl)carbamate], the IC50 is 1.6 nM.

Turning to `COc1cnc2c(-c3nc4ccc5c(c4s3)OC[C@H](COC(=O)Nc3cnc(OC[C@H](C)O)nc3)O5)cc(Cl)cc2c1` [Example 288, ((R)-2-(6-chloro-3-methoxyquinolin-8-yl)-7,8-dihydro-[1,4]dioxino[2′,3′:3,4]benzo[1,2-d]thiazol-7-yl)methyl (2-((S)-2-hydroxypropoxy)pyrimidin-5-yl)carbamate], the IC50 is 2.2 nM.

Take `COc1cnc2c(-c3nc4ccc5c(c4s3)OC[C@H](COC(=O)Nc3cnc(OC[C@@H](C)O)nc3)O5)cc(Cl)cc2c1` [Example 289, ((R)-2-(6-chloro-3-methoxyquinolin-8-yl)-7,8-dihydro-[1,4]dioxino[2′,3′:3,4]benzo[1,2-d]thiazol-7-yl)methyl (2-((R)-2-hydroxypropoxy)pyrimidin-5-yl)carbamate]: the IC50 was found to be 1.8 nM.

Take `COc1cnc2c(-c3nc4cc(F)c5c(c4s3)[C@H](C)[C@@H](CO)O5)cc(Cl)cc2c1` [Example 290, ((7S,8S)-2-(6-chloro-3-methoxyquinolin-8-yl)-5-fluoro-8-methyl-7,8-dihydrobenzofuro[5,4-d]thiazol-7-yl)methanol]: the IC50 is 0.8 nM.

With `COc1cnc2c(-c3nc4cc(F)c5c(c4s3)OC[C@H](CO)O5)cc(C)cc2n1` [Example 291, (S)-(5-fluoro-2-(2-methoxy-7-methylquinoxalin-5-yl)-7,8-dihydro-[1,4]dioxino[2′,3′:3,4]benzo[1,2-d]thiazol-7-yl)methanol], the IC50 was found to be 59 nM.

Staying with this test, now noted: PAR4-expressing HEK293 cells; calcium mobilization induced by H-Ala-Phe(4-F)-Pro-Gly-Trp-Leu-Val-Lys-Asn-Gly-NH2; 11-point concentration-response curves.
With “(S)-5-fluoro-2-(2-methoxy-7-methylquinoxalin-5-yl)-7-(((2-methylpyrimidin-5-yl)oxy)m ethyl)-7,8-dihydro-[1,4]dioxino[2′,3′:3,4]benzo[1,2-d]thiazole [Example 292]”, the IC50 was 1.1 nM.
